Laboratory results: US10143638B2, “Method of treating skin with ingenol mebutate” (LEO Laboratories Limited, priority 2009, dated 2018)

Test system: HAS3
Assay: HAS3 gene expression by dermal fibroblasts (qPCR)
Assay type: cell-based, human
Text: A normal adult skin biopsy (6 mm) was obtained (n=1), with informed consent, from an individual attending the Oral Surgery Clinic, School of Dentistry, Wales College of Medicine, Cardiff. Following the application of a local anaesthetic, the dermal biopsy was collected and adult dermal fibroblast cultures established by single cell suspension technique, following enzymic degradation of the specimen. This technique has previously been reliably used to establish viable primary cultures of both oral and dermal fibroblasts in vitro (Cook et al, 2000; Stephens et al, 2001; 2003). Dermal fibroblasts were cultured in Fibroblast-Serum Containing Medium, containing Dulbecco's Modified Eagle's Medium (DMEM), supplemented with L-glutamine (2 mM), antibiotics (100 U/ml) penicillin G sodium, […] streptomycin sulphate and 0.25 μg/ml amphotericin B) and 10% foetal calf serum (all purchased from Invitrogen Ltd., Paisley, U.K.). Dermal fibroblast cultures were maintained at 37° C., in a 5% CO2/95% air atmosphere, with the culture medium being changed every 2-3 days. Dermal fibroblasts were used between) passage 7-17, for all experiments.
Following trypsinization, dermal fibroblasts were seeded in 24-well tissue culture plates, in PEP005-free, Fibroblast-Serum Containing Medium (1 ml), at a cell density of 2.5×10^4 cell/well. Dermal fibroblasts were maintained at 37° C., in a 5% CO2/95% air atmosphere, overnight. At this stage, the culture medium was replaced with Fibroblast-Serum Containing Medium (600 μl), containing 0 μg/ml, 0.01 μg/ml, 0.1 μg/ml, 1 μg/ml, 10 μg/ml or 100 μg/ml PEP005, +/−TGF-β1 (10 ng/ml) (three culture wells per PEP005 concentration). A control was also established, consisting of cells in Fibroblast-Serum Containing Medium, containing 1% DMSO. The dermal fibroblasts were maintained at 37° C., in a 5% CO2/95% air atmosphere, for 24 h or 72 h, prior to washing in PBS (3×1 ml) and Trizol® Reagent (250 μl) added to the cells, for 5 min at room temperature, to induce cell lysis. RNA was extracted by the phenol-chloroform method, as described above, while a cDNA library was generated via random hexamer RT, as described above. RNA (1 μg) was added to 100 µM random hexamer (1 μl), 5×RT Buffer (4 μl), 2.5 mM Deoxynucleoside Triphosphates (dNTPs, 5 μl), 2 μl DTT and Nuclease-Free Water, were added to the reaction (total volume, 20 μl). To denature the RNA, reaction tubes were placed in a GeneAmp PCR System 9700 (Applied Biosystems, Cheshire, U.K.) and heated for 5 min/95° C., prior to cooling to 4° C. Superscript (1 μl) and RNAsin® Ribonuclease Inhibitor (1 μl, Promega, Hampshire, U.K.) were added to each tube, and the tubes subjected to […] at 20° C. for 10 min, 42° C. for 1 h and 95° C. for 5 min, prior to storage at 4° C., until required. As a negative control, RT was also performed, with Nuclease-Free Water replacing the RNA sample.
qPCR was performed, as described above, with the probe and primers for HAS1, HAS2 and HAS3 (target genes) and the 18s ribosomal RNA (reference gene), designed and supplied by Applied Biosystems. PCR was performed in a final volume of 20 μl/sample, with each reaction mix consisting of cDNA (1 μl), target gene primers and probe (1 μl), Taqman® FAST Universal PCR Master Mix (10 μl, Applied Biosystems), and Nuclease-Free Water (8 μl). PCR amplification was performed, using an initial cycle of 95° C. for 1 s, followed by 40 cycles of 60° C. for 20 s. A cDNA-free control was also included. Again, the comparative CT method was used for relative quantification of gene expression. Each experiment was performed on three separate occasions.

C/C=C(/C)C(=O)O[C@H]1C(C)=C[C@]23C(=O)[C@@H](C=C(CO)[C@@H](O)[C@]12O)[C@H]1[C@@H](C[C@H]3C)C1(C)C [PEP005, ingenol-3-angelate]
HAS3 expression (PEP005 0.01-100 μg/ml plus TGF-β1 (10 ng/ml), 72 h (p>0.05)): no significant effects | HAS3 expression (PEP005 0.01-100 μg/ml, absence of TGF-β1, 24 h, non-significant (p>0.05)): completely abolished | HAS3 expression (PEP005 0.1-10 μg/ml plus TGF-β1 (10 ng/ml), 24 h, down-regulation, non-significant (p>0.05)): barely detectable levels | HAS3 gene expression (PEP005 1-10 μg/ml, absence of TGF-β1, 72 h, non-significant (p>0.05)): up-regulation
